Results on three compounds are retold here after patent US11938164B2, “Exosome-based cancer assays” (TRUSTEES OF BOSTON UNIVERSITY, priority 2021, dated 2024).

Assay [1] deals with PD-L1. Put plainly: Flow cytometry of PD-L1 on DU145 cells. It is filed as cell-based, human. Conditions: MZ-1 50 nM, JQ1 400 nM. How it is done:
Single-cell suspensions were washed after collection and stained in ice-cold Ca^+2/Mg^+2-free PBS with a viability dye (Zombie NIR, BioLegend) for 20 min at 4° C. in the dark. Cell suspensions were then washed twice with ice-cold flow cytometry buffer (Ca^+2/Mg^+2-free PBS, supplemented with 2% FBS and 2 mM EDTA). Cell suspensions were then stained for PD-L1 (PE-conjugated, BD Biosciences). All cell suspensions were washed twice in ice cold flow cytometry buffer before analysis. Unstained cells and single-stained controls were used to calculate flow cytometry compensation. Data acquisition (typically 1 million events) was performed on a BD LSRII instrument at the Boston University Flow Cytometry Core Facility. Data analysis was carried out using FlowJo Software (version 10.6.1, Tree Star).
In general terms: In flow cytometry, cells or beads pass a laser one at a time.

The subject of assay [2] is DU145 cells. Briefly: RT-PCR of SNAI1 and CD274 in DU145 cells after T2D exosomes plus JQ1 or MZ-1. Conditions: MZ-1 50 nM, JQ1 400 nM. It is filed as cell-based, human. How it is done:
(FIG. 19A) Expression of SNAI1 and CD274 genes in DU145 cells measured by RT-PCR of cellular RNA after exosome treatment. T2D exosomes (109; T2D Exo) were compared to media only control exosomes (Control), or T2D Exo+JQ1 or MZ1. (JQ1 is a pan-BET inhibitor (400 nM) and MZ-1 is a BRD4-selective degrader (50 nM)). (FIG. 19B) Expression of PD-L1 was measured by flow cytometry after treatments. One million events were analyzed by Flow-Jo and presented as overlaid histograms (control, red trace; experimental, black trace). (FIG. 19C) Flow cytometry data of FIG. 19B were quantified with PD-L1 as percent of parent population. The experiment was conducted in triplicate with differences between means represented as bar graphs. Data were analyzed by two-way ANOVA with statistical significance presented as: ****, P<0.0001 (TGFB, TGF-β positive control at 5 ng/mL for SNAI1 induction; IFNgamma, interferon-γ positive control at 5 ng/mL for CD274 induction).
Procedures were as previously described. Briefly, total RNA was extracted from tumor cells using an RNAeasy Kit (Qiagen). Reverse transcription reactions were performed with 1 μg of total RNA with the QuantiTect Reverse Transcription kit (Qiagen). Gene expression was measured using TaqMan™ master mix (Thermofisher, 4369510) and human gene probes as follows: SNAI (Hs00195591_m1), SNA2 (Hs00950344_m1), CDH1 (Hs01023895_m1), ACTB (Hs00357333_g1), CD274 (encodes PD-L1, Hs01125301_m1), CD155 (encodes PVR or TIGIT ligand, Hs00197846_m1), VIM (Hs00958111_m1), TGFB1 (Hs00998133_m1), and AHNAK (Hs01102463_m1).

Assay [3] relates to BRD2, BRD3 and BRD4. As to conditions: DU145 cells, cited from earlier work.
Assay [4] relates to 4T1 cells. Briefly: Transwell migration assay with 4T1 cells. As to conditions: 50 nM MZ-1. Format: cell-based, murine. As to the method: FIGS. 9A-9D depict EMT induction in murine 4T1 cells treated with EVs from IS vs IR murine adipocytes. Murine 3T3-L1 adipocytes were differentiated from pre-adipocyte fibroblasts as published (24), treated with 250 pM murine TNFα overnight, as specified to induce insulin resistance (9), then adipocyte conditioned media was used as the source of EVs. (FIG. 9A) 4T1 cells were treated for 3 days with EVs from IS or IR adipocytes, vs. media control EVs, then cells were fixed for immunohistochemistry. Vimentin and E-cadherin, as mesenchymal or epithelial markers respectively, were visualized by fluorophore-conjugated primary anti-mouse antibodies, with phalloidin stain for cytoskeletal structure and DAPI counterstain for DNA. Bar, 10 μm. (FIG. 9B) RT-PCR validation of two selected EMT genes, induced by EVs. (FIG. 9C) Transwell migration assay with 4T1 cells exposed to IS vs IR EVs, or IR treated with 50 nM MZ-1 (25) to inhibit BRD4 and block migration (18,24). (FIG. 9D) Quantitation of B. (n=3; ***, P<0.005).

The test system of assay [5] is MCF-7 cells. Put plainly: EMT/CSC gene expression (RT-PCR, PCR array, IPA) in MCF-7 cells treated with adipocyte exosomes. It is filed as cell-based, human. As to conditions: MCF7 cells; compared to control EVs. How it is done:
RNA was isolated from cells using RNeasy Plus Mini Kit (74136, Qiagen). From each sample, 1 μg of RNA was used to prepare 20 μL cDNA using QuantiTect Reverse Transcription Kit (Qiagen, 205313). Human RT2 Profiler™ PCR Array, including Epithelial to Mesenchymal Transition (EMT) (PAHS-090Z) and Cancer Stem Cell (PAHS-176ZC) arrays, were purchased from Qiagen. Each cDNA sample (102 μL comprised of 1 μg RNA) was mixed with 1,350 μL RT2 SYBR Green ROX qPCR Mastermix (Qiagen, 330522) and 1,248 μL RNAse-free water. A total volume of 2,700 μL was mixed by vortexing and transferred to a reservoir. Then, an 8 channel pipettor was used to take aliquots of reaction mix from the reservoir, to distribute 25 μL into each well of the array. PCR reactions were performed and results were analyzed using a 7500 Fast Real-Time PCR instrument.
All Ct values of the genes were normalized to the respective ACTB gene (delta Ct). […] For the control groups, delta.delta Ct was calculated using this formula: ΔΔCt=ΔCt (C1 or C2 or C3)—ΔCt (Control average). Then, fold-change was calculated using 2∧−ΔΔCt, (2 to the power of negative ΔΔCt). Next, the Z score was calculated based on this formula: Z score=(x-mean)/SD, where X is the fold-change. […]
To predict disease and function, and downstream pathways, data were analyzed through the use of Ingenuity Pathway Analysis, IPA (QIAGEN Inc.). […]

Consider `Cc1sc2c(c1C)C(c1ccc(Cl)cc1)=N[C@@H](CC(=O)OC(C)(C)C)c1nnc(C)n1-2` [JQ1], for which the “PD-L1 surface protein induced by T2D exosome treatment” value in assay [1] is given as “inhibited”. Further, in assay [2], the “expression of SNAI1 induced by T2D plasma exosomes” value was “not able to reduce expression below the BRD4-selective level” and the “transcription of CD274 induced by T2D plasma exosomes” value is “inhibit transcription to below baseline”.
Take `Cc1ncsc1-c1ccc(CNC(=O)[C@@H]2C[C@@H](O)CN2C(=O)[C@@H](NC(=O)COCCOCCOCCNC(=O)C[C@@H]2N=C(c3ccc(Cl)cc3)c3c(sc(C)c3C)-n3c(C)nnc32)C(C)(C)C)cc1` [MZ-1]: in assay [3] (50 nM), the “elimination of BET proteins, low concentration” value was “selective to eliminate BRD4 protein while preserving BRD2 and BRD3”. Further, the “elimination of BET proteins, high doses” value in assay [3] (400 nM) is “eliminate all three somatic BET proteins”. Moreover, the “PD-L1 surface protein induced by T2D exosome treatment” value in assay [1] is given as “inhibited”. Moreover, the “4T1 migration provoked by exosomes from IR adipocytes” value in assay [4] is reported as “effectively ablated”. For the same compound, in assay [2], the “expression of SNAI1 induced by T2D plasma exosomes” value is given as “inhibited expression” and the “transcription of CD274 induced by T2D plasma exosomes” value is “same inhibitory effect”.
Take TGF-β: the “transcription of ZEB1 and SNAI2 readout genes” value in assay [5] is “Induction”.
